Several values for one entry are separate records, joined by “and”; a condition that tells them apart may be missing. Equal values may be shown once. Read-outs that look alike come from different tables or passages of the source.
Assays:
[1] = in vitro; details: human; for Papp A→B at 2 h, 10 μM: Caco-2, pH 7.4, Papp A→B; for Papp B→A at 2 h, 10 μM: Caco-2, pH 7.4, Papp B→A
[2] = biological target: T1, rat κ-opioid receptor (Rattus norvegicus, UniProt P34975); test: Radioligand binding, κ-opioid receptor ([3H]U69593)
T1 construct: expressed in transfected cells; host or cells: CHO cells
T1 sequence (P34975 whole entry): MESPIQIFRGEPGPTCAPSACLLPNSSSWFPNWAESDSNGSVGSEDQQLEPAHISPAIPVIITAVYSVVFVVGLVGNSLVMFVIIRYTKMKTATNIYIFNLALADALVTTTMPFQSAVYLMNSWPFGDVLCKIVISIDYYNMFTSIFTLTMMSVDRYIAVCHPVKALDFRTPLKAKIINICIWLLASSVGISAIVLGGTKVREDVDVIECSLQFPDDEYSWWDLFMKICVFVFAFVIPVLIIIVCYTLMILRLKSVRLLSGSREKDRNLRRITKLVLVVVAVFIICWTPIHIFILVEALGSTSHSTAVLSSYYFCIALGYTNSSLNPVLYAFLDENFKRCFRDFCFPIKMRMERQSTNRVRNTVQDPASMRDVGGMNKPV
Procedure: Competitive inhibition studies were performed on cloned opioid receptors expressed in membranes of Chinese hamster ovary (CHO) cells and conducted in triplicate (n = 3 independent experiments).
Radioligand binding assays were performed to evaluate the ability of these agents to inhibit specific radioligand binding to cloned opioid receptor subtypes. Half-maximal inhibitory concentration (IC50), equilibrium dissociation constant for the inhibitor (Ki), and negative log of the equilibrium dissociation constant for the inhibitor (pKi) values were obtained. The receptor binding methods used for µ ([Zhang et al., 1998])-, δ ([Simonin et al., 1994])-, and κ ([Meng et al., 1993])-opioid receptors have been described previously, with the exception that 100 mM NaCl was added to the incubation buffer in the µ-opioid receptor binding assay. All assays were conducted in 200-µl volume. All assay incubations were terminated by filtration, and bound radioligand was quantitated by liquid scintillation spectrometry. The IC50 values were determined by nonlinear regression analysis of the competition curves generated with the mean of duplicate values using Hill equation curve fitting. The inhibition constants (Ki) were calculated using the Cheng-Prusoff equation. The pKi results from three independent experiments were analyzed for significant differences by one-way analysis of variance (ANOVA) followed by Bonferroni multiple comparison test.

[3] = Quantitative whole body autoradiography; format: in vivo, rat; details: for Concentration of radioactivity, Blood / Concentration of radioactivity, Brain / Concentration of radioactivity, Large intestine wall / Concentration of radioactivity, Liver / Concentration of radioactivity, Spinal cord / Concentration of radioactivity, Fetus (whole) / Concentration of radioactivity, Placenta / Concentration of radioactivity, Uterus: single oral 50 mg/kg
Procedure: Quantitative whole body autoradiography was conducted to track the overall distribution of a single oral dose of radiolabeled naloxegol in adult male and pregnant female rats.
Seven male Lister hooded rats (8–9 weeks old at dosing, body weight 255–290 g each) and 5 time-mated female Sprague-Dawley rats (body weight 347–392 g each) were supplied by Charles River UK Limited (Margate, Kent, UK). All animals were acclimated to the experimental unit before the study (males, 6 days; females, 13 days).
Animals were fasted overnight before dose administration. […] Male rats were administered a mean (±S.D.) of 5.62 (±0.06) MBq/kg; female rats received a mean of 5.60 (±0.03) MBq/kg.
One male rat was humanely euthanized by CO2 narcosis at 0.5, 1, 4, 24, 48, 168, and 504 hours postdose, respectively. One time-mated female rat was humanely euthanized at 0.5, 1, 4, 24, and 48 hours postdose, respectively.
After removal of the whiskers, legs, and tails, the carcasses were frozen by immersion in a mixture of solid CO2 in hexane for approximately 30 minutes and then embedded in a block of carboxymethylcellulose, which was frozen in the same way. After equilibration at approximately –20°C, sagittal sections (30 μm thick) were taken using a whole body cryomicrotome (Leica Biosystems GmbH, Nussloch, Germany). The sections were freeze dried in a chamber of the cryomicrotome before storage at ambient temperature. Carcasses were stored frozen (–20°C) until analysis. After analysis, samples were returned to storage at –20°C. Freeze-dried whole body sections were stored at room temperature.
The radioactivity present in various organs and tissues in whole body sections was determined by QWBA. After exposure, the imaging plates were scanned using a phosphorimage analyzer. Tissues and organs of interest were quantified using AIDA image analysis software (version 4.06; Raytest Isotopenmeßgeräte GmbH, Straubenhardt, Germany). For analysis, representative whole body sections were placed into close contact with phosphor screens and left for a 7-day period. A set of external standards were also exposed on each phosphor screen. These standards were prepared from blood spiked with a serial dilution of a ^14C-labeled reference solution, which was dispensed into holes drilled into a block of carboxymethylcellulose, frozen, and then sectioned in the same way as the animal samples.
After the phosphor screen was scanned, an image of the radioactivity in the sample was stored digitally. For quantitative analysis, six background areas were defined on each stored phosphor screen image. The software automatically calculated the mean background and subsequently subtracted this from all standards and tissues analyzed. A regression coefficient was derived by comparing the response of each standard with the nominal disintegrations per minute per gram over the range of radioactive concentration used and forcing the response curve through the origin. The concentrations of the standards used were in the range of 0.09 to 826.31 μg Eq/g. The response curve was linear over these concentrations and was assumed to be linear to the limit of reliable determination.
Organs or tissues from representative autoradiograms were identified and integrated. The back-calculated tissue concentrations (μg Eq/g) were then determined by the software. The limit of reliable measurement for each storage screen was calculated from the assessment of the mean background of the plate and taken to be three times the S.D. of the mean above background. At the specific activity used in this study, the limit of reliable measurement was in the range of 0.06 to 0.16 μg Eq/g.

[4] = parameters: method as in Bui et al., 2016; details: quinidine; ref Bui et al., 2016; cited from earlier work
[5] = no P-gp inhibitor, mean of 3 experiments

C=CCN1CC[C@]23c4c5ccc(O)c4O[C@H]2[C@@H](OCCOCCOCCOCCOCCOCCOCCOC)CC[C@@]3(O)[C@H]1C5 [Naloxegol, naloxegol]
Papp A→B at 2 h, 10 μM ([1]; Cyclosporin A): 1.8 ×10⁻⁶ cm/s | Papp A→B at 2 h, 10 μM ([1]; Elacridar, 0.5 μM): 2.3 ×10⁻⁶ cm/s | Papp A→B at 2 h, 10 μM ([1]; Verapamil, 100 μM): 1.3 ×10⁻⁶ cm/s | Papp A→B at 2 h, 10 μM [1, 5]: 0.7 ×10⁻⁶ cm/s | Papp B→A at 2 h, 10 μM ([1]; Cyclosporin A): 1.8 ×10⁻⁶ cm/s | Papp B→A at 2 h, 10 μM ([1]; Elacridar, 0.5 μM): 2.5 ×10⁻⁶ cm/s | Papp B→A at 2 h, 10 μM ([1]; Verapamil, 100 μM): 1.7 ×10⁻⁶ cm/s | Papp B→A at 2 h, 10 μM [1, 5]: 8.4 ×10⁻⁶ cm/s | Ki ([2]; cloned rat κ-opioid receptors, read-out: geometric mean Ki): 8.65 nM and 8.6 nM | Ki ([2]; no measure named, read-out: κ-opioid receptor value expressed as plasma concentration (Fig. 5) (converted)): 8.59 nM | Concentration of radioactivity, Blood ([3]; male rat, 0.5 h): 3.03 μg Eq/g | Concentration of radioactivity, Brain ([3]; male rat, 0.5 h): BLQ | Concentration of radioactivity, Large intestine wall ([3]; male rat, 0.5 h): 8.83 μg Eq/g | Concentration of radioactivity, Liver ([3]; male rat, 0.5 h): 43.40 μg Eq/g | Concentration of radioactivity, Spinal cord ([3]; male rat, 0.5 h): 0.06 μg Eq/g | Concentration of radioactivity, Blood ([3]; male rat, 1 h): 4.11 μg Eq/g | Concentration of radioactivity, Brain ([3]; male rat, 1 h): 0.21 μg Eq/g | Concentration of radioactivity, Large intestine wall ([3]; male rat, 1 h): 14.09 μg Eq/g | Concentration of radioactivity, Liver ([3]; male rat, 1 h): 66.49 μg Eq/g | Concentration of radioactivity, Spinal cord ([3]; male rat, 1 h): 0.15 μg Eq/g | Concentration of radioactivity, Blood ([3]; male rat, 4 h): 2.14 μg Eq/g | Concentration of radioactivity, Brain ([3]; male rat, 4 h): 0.14 μg Eq/g | Concentration of radioactivity, Large intestine wall ([3]; male rat, 4 h): 12.09 μg Eq/g | Concentration of radioactivity, Liver ([3]; male rat, 4 h): 58.74 μg Eq/g | Concentration of radioactivity, Liver ([3]; male rat, 24 h): 4.61 μg Eq/g | Concentration of radioactivity, Liver ([3]; male rat, 48 h): 7.74 μg Eq/g | Concentration of radioactivity, Liver ([3]; male rat, 168 h): 1.03 μg Eq/g | Concentration of radioactivity, Blood ([3]; pregnant female rat, 0.5 h): 12.38 μg Eq/g | Concentration of radioactivity, Brain ([3]; pregnant female rat, 0.5 h): 0.34 μg Eq/g | Concentration of radioactivity, Fetus (whole) ([3]; pregnant female rat, 0.5 h): 3.10 μg Eq/g | Concentration of radioactivity, Large intestine wall ([3]; pregnant female rat, 0.5 h): 23.61 μg Eq/g | Concentration of radioactivity, Liver ([3]; pregnant female rat, 0.5 h): 68.67 μg Eq/g | Concentration of radioactivity, Placenta ([3]; pregnant female rat, 0.5 h): 21.09 μg Eq/g | Concentration of radioactivity, Spinal cord ([3]; pregnant female rat, 0.5 h): 0.24 μg Eq/g | Concentration of radioactivity, Uterus ([3]; pregnant female rat, 0.5 h): 31.19 μg Eq/g | Concentration of radioactivity, Blood ([3]; pregnant female rat, 1 h): 7.80 μg Eq/g | Concentration of radioactivity, Brain ([3]; pregnant female rat, 1 h): 0.15 μg Eq/g | Concentration of radioactivity, Fetus (whole) ([3]; pregnant female rat, 1 h): 1.99 μg Eq/g | Concentration of radioactivity, Large intestine wall ([3]; pregnant female rat, 1 h): 25.20 μg Eq/g | Concentration of radioactivity, Liver ([3]; pregnant female rat, 1 h): 56.01 μg Eq/g | Concentration of radioactivity, Placenta ([3]; pregnant female rat, 1 h): 12.89 μg Eq/g | Concentration of radioactivity, Spinal cord ([3]; pregnant female rat, 1 h): 0.10 μg Eq/g | Concentration of radioactivity, Uterus ([3]; pregnant female rat, 1 h): 82.21 μg Eq/g | Concentration of radioactivity, Blood ([3]; pregnant female rat, 4 h): 6.92 μg Eq/g | Concentration of radioactivity, Brain ([3]; pregnant female rat, 4 h): 0.28 μg Eq/g | Concentration of radioactivity, Fetus (whole) ([3]; pregnant female rat, 4 h): 2.23 μg Eq/g | Concentration of radioactivity, Large intestine wall ([3]; pregnant female rat, 4 h): 37.45 μg Eq/g | Concentration of radioactivity, Liver ([3]; pregnant female rat, 4 h): 58.78 μg Eq/g | Concentration of radioactivity, Placenta ([3]; pregnant female rat, 4 h): 14.78 μg Eq/g | Concentration of radioactivity, Spinal cord ([3]; pregnant female rat, 4 h): 0.12 μg Eq/g | Concentration of radioactivity, Uterus ([3]; pregnant female rat, 4 h): 185.03 μg Eq/g | Concentration of radioactivity, Fetus (whole) ([3]; pregnant female rat, 24 h): 0.17 μg Eq/g | Concentration of radioactivity, Liver ([3]; pregnant female rat, 24 h): 4.42 μg Eq/g | Concentration of radioactivity, Placenta ([3]; pregnant female rat, 24 h): 0.16 μg Eq/g | Concentration of radioactivity, Uterus ([3]; pregnant female rat, 24 h): 19.04 μg Eq/g | Concentration of radioactivity, Fetus (whole) ([3]; pregnant female rat, 48 h): BLQ | Concentration of radioactivity, Liver ([3]; pregnant female rat, 48 h): 2.68 μg Eq/g | Concentration of radioactivity, Placenta ([3]; pregnant female rat, 48 h): BLQ | Concentration of radioactivity, Uterus ([3]; pregnant female rat, 48 h): 4.00 μg Eq/g | time to elimination of radioactivity from most tissues ([3]; rat, naloxegol-derived radioactivity): ≤ 24 h | CNS distribution when coadministered with a strong P-gp inhibitor [4]: unaffected

From article PMC5399635 (The Journal of Pharmacology and Experimental Therapeutics, 2017)
